Consider 26 molecules from US20240101570A1 (AMGEN INC., priority 2020, published 2024).

In one test the test system is HCT116 WT cells. In words: HCT116 WT cell proliferation / viability (CellTiter-Glo, 6 days). The settings on record: Homo sapiens, HCT-116, 144 h, HCT116 WT cells, 6 days, CellTiter-Glo; read-out: HCT-116 WT IC50. It counts as cell-based. The method, boiled down:
(§1)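 IC50 values derive from sigmoidal dose-response fits, some with Hill slope fixed at −1 and top constrained to 100%, others from 4-parameter logistic models. They reflect CellTiter-Glo viability after 6 days of compound exposure at up to 10 or 50 μM.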

Another test deals with HCT116 MTAP null cells. As to the kind of experiment: HCT116 MTAP null cell proliferation / viability (CellTiter-Glo, 6 days). It counts as cell-based. Particulars: HCT116-MTAP null, 144 h, HCT116 MTAP null cells, 6 days, CellTiter-Glo; read-out: HCT-116 MTAP null IC50. The method, boiled down:
as §1

As for `C[C@@H]1OCc2c1c(N)nc1cnc(C(=O)N(Cc3ccc(C4CC4)cn3)C3CC3)cc21` [Example 417, (3S)-4-amino-N-cyclopropyl-N-((5-cyclopropyl-2-pyridinyl)methyl)-3-methyl-1,3-dihydrofuro[3,4-c][1,7]naphthyridine-8-carboxamide], the IC50 with HCT116 WT cells was found to be 17600 nM; in the test with HCT116 MTAP null cells, 5610 nM.
Turning to `Nc1nc2cnc(C(=O)N(Cc3ccc(OC(F)F)nn3)CC3CC3)cc2c2c1COC2` [Example 418, 4-amino-N-(cyclopropylmethyl)-N-((6-(difluoromethoxy)-3-pyridazinyl)methyl)-1,3-dihydrofuro[3,4-c][1,7]naphthyridine-8-carboxamide], the 50% inhibitory concentration (IC50) came out at 6340 nM in the test with HCT116 WT cells and 171 nM in the test with HCT116 MTAP null cells.
The like results for `CCN(Cc1ccc(C(F)(F)F)cn1)C(=O)c1cc2c3c(c(N)nc2cc1F)COC3` [Example 419, 4-amino-N-ethyl-7-fluoro-N-((5-(trifluoromethyl)-2-pyridinyl)methyl)-1,3-dihydrofuro[3,4-c]quinoline-8-carboxamide] were, in that order, 3790 nM and 152 nM.
Take `CCN(Cc1ccc(C(F)(F)F)cn1)C(=O)c1cc2c3c(c(N)nc2cc1Cl)COC3` [Example 420, 4-amino-7-chloro-N-ethyl-N-((5-(trifluoromethyl)-2-pyridinyl)methyl)-1,3-dihydrofuro[3,4-c]quinoline-8-carboxamide]: the values for the IC50 with HCT116 WT cells and in the test on HCT116 MTAP null cells were 8360 nM and 248 nM, respectively.
The like results for `CCN(Cc1ccc(Cl)cn1)C(=O)c1ccc2nc(N)c3c(c2c1)CO[C@@H]3C` [Example 421, (3R)-4-amino-N-((5-chloro-2-pyridinyl)methyl)-N-ethyl-3-methyl-1,3-dihydrofuro[3,4-c]quinoline-8-carboxamide] were, in that order, 10000 nM and 116 nM.
As to `CCN(Cc1ccc(C(F)(F)F)cn1)C(=O)c1ccc2nc(N)c3c(cnn3C)c2c1` [Example 422, 4-amino-N-ethyl-3-methyl-N-((5-(trifluoromethyl)-2-pyridinyl)methyl)-3H-pyrazolo[3,4-c]quinoline-8-carboxamide], the IC50 in the test on HCT116 WT cells worked out at 10700 nM; in the test on HCT116 MTAP null cells, 6740 nM.
For the molecule `CC(C)N(Cc1ccc(Cl)cn1)C(=O)c1ccc2nc(N)c3c(c2c1)CO[C@@H]3C` [Example 423, (3R)-4-amino-N-((5-chloro-2-pyridinyl)methyl)-3-methyl-N-(2-propanyl)-1,3-dihydrofuro[3,4-c]quinoline-8-carboxamide], the concentration for half-maximal inhibition (IC50) with HCT116 WT cells was 3980 nM; in the test with HCT116 MTAP null cells it was 64 nM.
Regarding `C[C@H]1OCc2c1c(N)nc1cnc(C(=O)N(Cc3ccc(OC(F)F)nn3)CC3CC3)cc21` [Example 424, (3R)-4-amino-N-(cyclopropylmethyl)-N-((6-(difluoromethoxy)-3-pyridazinyl)methyl)-3-methyl-1,3-dihydrofuro[3,4-c][1,7]naphthyridine-8-carboxamide], the IC50 with HCT116 WT cells turned out to be 1340 nM; with HCT116 MTAP null cells, 32 nM.
With `C[C@@H]1OCc2c1c(N)nc1cnc(C(=O)N(Cc3ccc(OC(F)F)nn3)CC3CC3)cc21` [Example 425, (3S)-4-amino-N-(cyclopropylmethyl)-N-((6-(difluoromethoxy)-3-pyridazinyl)methyl)-3-methyl-1,3-dihydrofuro[3,4-c][1,7]naphthyridine-8-carboxamide], the IC50 in the test with HCT116 WT cells is greater than 50000 nM; with HCT116 MTAP null cells, 2710 nM.
In the case of `Nc1nc2ccc(C(=O)N(Cc3ccc(OC(F)F)nn3)CC3CC3)cc2c2c1COC2` [Example 426, 4-amino-N-(cyclopropylmethyl)-N-((6-(difluoromethoxy)-3-pyridazinyl)methyl)-1,3-dihydrofuro[3,4-c]quinoline-8-carboxamide], the results for the IC50 in the test with HCT116 WT cells and in the test on HCT116 MTAP null cells were 4220 nM and 96 nM, respectively.
Regarding `CCN(Cc1ccc(C(F)(F)F)cn1)C(=O)c1cc2c(cc1F)nc(N)c1c2cnn1C` [Example 427, 4-amino-N-ethyl-7-fluoro-3-methyl-N-((5-(trifluoromethyl)-2-pyridinyl)methyl)-3H-pyrazolo[3,4-c]quinoline-8-carboxamide], the IC50 was 1680 nM in the test with HCT116 WT cells and 44 nM in the test on HCT116 MTAP null cells.
In the case of `CCN(Cc1ccc(C(F)(F)F)cn1)C(=O)c1ccc2nc(N)c3ccncc3c2c1` [Example 428, 5-amino-N-ethyl-N-((5-(trifluoromethyl)-2-pyridinyl)methyl)benzo[c][2,6] naphthyridine-9-carboxamide], the IC50 was 1250 nM in the test on HCT116 WT cells and 101 nM with HCT116 MTAP null cells.
The like results for `CN(Cc1ccc(C2=CCOCC2)cn1)C(=O)c1ccc2nc(N)c3c(c2c1)COC3` [Example 429, 4-amino-N-((5-(3,6-dihydro-2H-pyran-4-yl)-2-pyridinyl)methyl)-N-methyl-1,3-dihydrofuro[3,4-c]quinoline-8-carboxamide] were, in that order, 31800 nM and 1260 nM.
As for `COC(=O)N1CC=C(c2ccc(CN(C)C(=O)c3ccc4nc(N)c5c(c4c3)COC5)nc2)CC1` [Example 430, methyl 6-((((4-amino-1,3-dihydrofuro[3,4-c]quinolin-8-yl)carbonyl)(methyl)amino)methyl)-3′,6′-dihydro[3,4′-bipyridine]-1′(2′H)-carboxylate], the results for the IC50 in the test with HCT116 WT cells and in the test on HCT116 MTAP null cells were 12800 nM and 312 nM, respectively.
For `CC(C)N(Cc1ccc(C(F)(F)F)cn1)C(=O)c1ccc2[nH]c(=O)n3nccc3c2c1` [Example 431, 5-oxo-N-(2-propanyl)-N-((5-(trifluoromethyl)-2-pyridinyl)methyl)-5,6-dihydropyrazolo[1,5-c]quinazoline-9-carboxamide], the values for the IC50 with HCT116 WT cells and with HCT116 MTAP null cells were 23500 nM and 14300 nM, respectively.
Regarding `Cc1nn(C)c2c1c(N)nc1ccc(C(=O)N(Cc3ccc(C(F)(F)F)cn3)C(C)C)cc12` [Example 432, 4-amino-1,3-dimethyl-N-(2-propanyl)-N-((5-(trifluoromethyl)-2-pyridinyl)methyl)-1H-pyrazolo[4,3-c]quinoline-8-carboxamide], the concentration for half-maximal inhibition (IC50) in the test with HCT116 WT cells is 6390 nM; in the test with HCT116 MTAP null cells, 203 nM.
As to `CC(C)N(Cc1cnc(C(F)(F)F)cn1)C(=O)c1ccc2nc(N)c3c(c2c1)CO[C@@H]3C` [Example 434, (3R)-4-amino-3-methyl-N-(2-propanyl)-N-((5-(trifluoromethyl)-2-pyrazinyl)methyl)-1,3-dihydrofuro[3,4-c]quinoline-8-carboxamide], the results for the half-maximal inhibitory concentration (IC50) in the test with HCT116 WT cells and in the test on HCT116 MTAP null cells were 23900 nM and 584 nM, respectively.
On to `C[C@H](c1ncccn1)N(Cc1ccc(C(F)(F)F)cn1)C(=O)c1cc2c3c(c(N)nc2cc1F)COC3` [Example 435, 4-amino-7-fluoro-N-((1R)-1-(2-pyrimidinyl)ethyl)-N-((5-(trifluoromethyl)-2-pyridinyl)methyl)-1,3-dihydrofuro[3,4-c]quinoline-8-carboxamide], for which the IC50 was 65 nM in the test on HCT116 WT cells and 14 nM in the test with HCT116 MTAP null cells.
For `C[C@H](c1ncccn1)N(Cc1ccc(C#N)cn1)C(=O)c1cc2c3c(c(N)nc2cc1F)COC3` [Example 436, 4-amino-N-((5-cyano-2-pyridinyl)methyl)-7-fluoro-N-((1R)-1-(2-pyrimidinyl)ethyl)-1,3-dihydrofuro[3,4-c]quinoline-8-carboxamide], in that order: 187 nM and 29 nM.
For `C[C@H](c1ncccc1F)N(Cc1ccc(Br)nn1)C(=O)c1cc2c3c(c(N)nc2cc1F)COC3` [Example 437, 4-amino-N-((6-bromo-3-pyridazinyl)methyl)-7-fluoro-N-((1R)-1-(3-fluoro-2-pyridinyl)ethyl)-1,3-dihydrofuro[3,4-c]quinoline-8-carboxamide], the figures for the IC50 in the test with HCT116 WT cells and with HCT116 MTAP null cells were 353 nM and 31 nM, respectively.
Consider `C[C@H](c1ncccn1)N(Cc1ccc(C(F)F)cn1)C(=O)c1ccc2nc(N)c3c(c2c1)COC3` [Example 438, 4-amino-N-((5-(difluoromethyl)-2-pyridinyl)methyl)-N-((1R)-1-(2-pyrimidinyl)ethyl)-1,3-dihydrofuro[3,4-c]quinoline-8-carboxamide], for which the results for the IC50 in the test with HCT116 WT cells and with HCT116 MTAP null cells were 187 nM and 12 nM, respectively.
`C[C@H](c1ncccn1)N(Cc1ccc(Cl)cn1)C(=O)c1ccc2nc(N)c3c(c2c1)COC3` [Example 439, 4-amino-N-((5-chloro-2-pyridinyl)methyl)-N-((1R)-1-(2-pyrimidinyl)ethyl)-1,3-dihydrofuro[3,4-c]quinoline-8-carboxamide]: the IC50 is 138 nM with HCT116 WT cells and 7 nM in the test on HCT116 MTAP null cells.
As for `C[C@@H](c1ncccn1)N(Cc1ccc(C(F)(F)F)nn1)C(=O)c1ccc2nc(N)c3c(c2c1)COC3` [Example 440, 4-amino-N-((1S)-1-(2-pyrimidinyl)ethyl)-N-((6-(trifluoromethyl)-3-pyridazinyl)methyl)-1,3-dihydrofuro[3,4-c]quinoline-8-carboxamide], the IC50 with HCT116 WT cells was greater than 10000 nM; in the test with HCT116 MTAP null cells, 461 nM.
For `C[C@H](c1ncccn1)N(Cc1ccc(C(F)(F)F)nn1)C(=O)c1ccc2nc(N)c3c(c2c1)COC3` [Example 441, 4-amino-N-((1R)-1-(2-pyrimidinyl)ethyl)-N-((6-(trifluoromethyl)-3-pyridazinyl)methyl)-1,3-dihydrofuro[3,4-c]quinoline-8-carboxamide], in that order: 204 nM and 12 nM.
On to `C[C@H](c1ncccc1F)N(Cc1ccc(C(F)(F)F)nn1)C(=O)c1ccc2nc(N)c3c(c2c1)COC3` [Example 442, 4-amino-N-((1R)-1-(3-fluoro-2-pyridinyl)ethyl)-N-((6-(trifluoromethyl)-3-pyridazinyl)methyl)-1,3-dihydrofuro[3,4-c]quinoline-8-carboxamide], for which the values for the IC50 in the test with HCT116 WT cells and in the test on HCT116 MTAP null cells were 177 nM and 9 nM, respectively.
For the molecule `Nc1nc2ccc(C(=O)N(Cc3ccc(C(F)(F)F)cn3)C3CC3)cc2c2c1COC2` [Example 443, 4-amino-N-cyclopropyl-N-((5-(trifluoromethyl)-2-pyridinyl)methyl)-1,3-dihydrofuro[3,4-c]quinoline-8-carboxamide], the values for the IC50 in the test with HCT116 WT cells and with HCT116 MTAP null cells were 7210 nM and 127 nM, respectively.
